Reference: patent US12239643B2, “Therapeutic agent for inflammatory diseases, autoimmune diseases, fibrotic diseases, and cancer diseases” (MEIJI SEIKA PHARMA CO., LTD., priority 2018, dated 2025)
Like-named read-outs stand apart in the source and are kept apart here.

System: PDE4
Experiment: Evaluation of PDE4 inhibitory activity, scintillation proximity assay
Assay type: biochemical
Conditions: scintillation proximity assay
Protocol: The BDE4 inhibitory activity was measured using scintillation proximity assay (SPA) as follows. First, a test compound dissolved in dimethyl sulfoxide was diluted 1:10 in reaction buffer solution which contained 50 mM of Tris-HCl with pH 7.4, 8.3 mM of MgCl2, 1.7 mM of EGTA, and 3 mg/mL of bovine serum albumin (BSA). Then, 10 μL of the diluted solution was added in a 96-well assay plate. Moreover, 50 μL of PDE4 (enzyme preparation) diluted 1:375 in the reaction buffer solution was added, and then 40 μL of [2,8-^3H]-adenosine-3′,5′-cyclic phosphate triethylammonium salt diluted 1:1000 in the reaction buffer solution was added. The mixture was allowed to stand at room temperature for 120 minutes. Thereafter, […] of RNA binding YSi-SPA beads suspension containing ZnSO4 was added and the mixture was allowed to stand at room temperature for 15 minutes, followed by adsorption of the enzyme reaction product to the beads. After that, the radioactivity was measured using a liquid scintillation counter for a 96-well plate. The mixture without the enzyme preparation added but only the reaction buffer solution added is a blank, and the mixture with the enzyme preparation added and only dimethyl sulfoxide added instead of the test compound is a control.
In addition, the PDE4 inhibitory activity (concentration that inhibits PDE4 activity by 50%=concentration for the inhibition rate of 50% (IC50)) of the test compound was calculated from the inhibition curves based on the inhibition rates for various concentrations of the test compound.

[1] = read-out: PDE4 Inhibitory Activity (Evaluation 1; concentration for the inhibition rate of 50%)
[2] = class symbols of Evaluation 1, read-out: PDE4 Inhibitory Activity (concentration for the inhibition rate of 50%, IC50), Evaluation 1

Row | Structure (SMILES) | IC50 [1] | IC50 [2]
1 | CC(C)(O)COc1ccc(-c2nccs2)c2oc(N3CC4CC(C3)N4)nc12 [Example 279, 1-((2-(3,6-Diazabicyclo[3.1.1]heptan-3-yl)-7-(thiazol-2-yl)benzo[d]oxazol-4-yl)oxy)-2-methylpropan-2-ol] | < 100 nM | 
2 | CC(C)(O)C(Oc1ccc(-c2nccs2)c2oc(N3CC4CC(C3)N4)nc12)C(F)(F)F (stereo not drawn) [Example 313, 3-((2-(3,6-Diazabicyclo[3.1.1]heptan-3-yl)-7-(thiazol-2-yl)benzo[d]oxazol-4-yl)oxy)-4,4,4-trifluoro-2-methylbutan-2-ol] | < 100 nM | 
3 | FC(F)(F)c1c(Cl)cc(-c2ccccn2)c2oc(N3CC4CCC(C3)N4)nc12 [Example 11, 2-(3,8-Diazabicyclo[3.2.1]octan-3-yl)-5-chloro-7-(pyridin-2-yl)-4-(trifluoromethyl)benzo[d]oxazole] |  | < 100 nM
4 | OC(c1cc(-c2nccs2)c2oc(N3CC4CCC(C3)N4)nc2c1OC(F)(F)F)C(F)F (stereo not drawn) [Example 276, 1-(2-(3,8-Diazabicyclo[3.2.1]octan-3-yl)-7-(thiazol-2-yl)-4-(trifluoromethoxy)benzo[d]oxazol-5-yl)-2,2-difluoroethan-1-ol] | < 100 nM | 
5 | CCOC(c1cc(-c2nccs2)c2oc(N3CC4CCC(C3)N4)nc2c1)C(F)(F)F (stereo not drawn) [Example 148, 2-(3,8-Diazabicyclo[3.2.1]octan-3-yl)-5-(1-ethoxy-2,2,2-trifluoroethyl)-7-(thiazol-2-yl)benzo[d]oxazole] |  | < 100 nM
6 | CC(C)(O)c1cc(-c2nccs2)c2oc(N3CC4CCC(C3)N4)nc2c1 [Example 172, 2-(2-(3,8-Diazabicyclo[3.2.1]octan-3-yl)-7-(thiazol-2-yl)benzo[d]oxazol-5-yl)propan-2-ol] |  | < 100 nM
7 | FC(F)(F)c1cc(-c2nccs2)c2oc(N3CC4CC(C3)N4)nc2c1 [Example 52, 2-(3,6-Diazabicyclo[3.1.1]heptan-3-yl)-7-(thiazol-2-yl)-5-(trifluoromethyl)benzo[d]oxazole] |  | < 100 nM
8 | CN(C)C(=O)C(F)(F)Oc1ccc(-c2nccs2)c2oc(N3CC4CC(C3)N4)nc12 [Example 408, 2-((2-(3,6-Diazabicyclo[3.1.1]heptan-3-yl)-7-(thiazol-2-yl)benzo[d]oxazol-4-yl)oxy)-2,2-difluoro-N,N-dimethylacetamide] | < 100 nM | 
9 | OCc1ccc(-c2nccs2)c2oc(N3CC4CCCC(C3)N4)nc12 [Example 134, (2-(3,9-Diazabicyclo[3.3.1]nonan-3-yl)-7-(thiazol-2-yl)benzo[d]oxazol-4-yl)methanol] |  | < 100 nM
10 | CC(C)(O)c1cc(-c2nccs2)c2oc(N3CC4CCCC(C3)N4)nc2c1OC(F)(F)F [Example 197, 2-(2-(3,9-Diazabicyclo[3.3.1]nonan-3-yl)-7-(thiazol-2-yl)-4-(trifluoromethoxy)benzo[d]oxazol-5-yl)propan-2-ol] | < 100 nM | 
11 | NC(=O)COC(c1ccc(-c2nccs2)c2oc(N3CC4CC(C3)N4)nc12)C(F)(F)F (stereo not drawn) [Example 256, 2-(1-(2-(3,6-Diazabicyclo[3.1.1]heptan-3-yl)-7-(thiazol-2-yl)benzo[d]oxazol-4-yl)-2,2,2-trifluoroethoxy)acetamide] | < 100 nM | 
12 | CC(O)C(F)(F)Oc1ccc(-c2cscn2)c2oc(N3CC4CC(C3)N4)nc12 (stereo not drawn) [Example 309, 1-((2-(3,6-Diazabicyclo[3.1.1]heptan-3-yl)-7-(thiazol-4-yl)benzo[d]oxazol-4-yl)oxy)-1,1-difluoropropan-2-ol] | < 100 nM | 
13 | OC(c1cc(-c2nccs2)c2oc(N3CC4CC(C3)N4)nc2c1)C(F)(F)F (stereo not drawn) [Example 135, 1-(2-(3,6-Diazabicyclo[3.1.1]heptan-3-yl)-7-(thiazol-2-yl)benzo[d]oxazol-5-yl)-2,2,2-trifluoroethan-1-ol] |  | < 100 nM
14 | CC(O)(c1cc(-c2nccs2)c2oc(N3CC4CCC(C3)N4)nc2c1)C(F)(F)F (stereo not drawn) [Example 159, 2-(2-(3,8-Diazabicyclo[3.2.1]octan-3-yl)-7-(thiazol-2-yl)benzo[d]oxazol-5-yl)-1,1,1-trifluoropropan-2-ol] |  | < 100 nM
15 | CC(O)c1cc(-c2nccs2)c2oc(N3CC4CCC(C3)N4)nc2c1 (stereo not drawn) [Example 106, 1-(2-(3,8-Diazabicyclo[3.2.1]octan-3-yl)-7-(thiazol-2-yl)benzo[d]oxazol-5-yl)ethan-1-ol] |  | < 100 nM
16 | N#CCOC(c1ccc(-c2nccs2)c2oc(N3CC4CCC(C3)N4)nc12)C(F)(F)F (stereo not drawn) [Example 228, 2-(1-(2-(3,8-Diazabicyclo[3.2.1]octan-3-yl)-7-(thiazol-2-yl)benzo[d]oxazol-4-yl)-2,2,2-trifluoroethoxy)acetonitrile] | < 100 nM | 
17 | FC(F)(F)Oc1cc(-c2nccs2)c2oc(N3CC4CCC(C3)N4)nc2c1 [Example 54, 2-(3,8-Diazabicyclo[3.2.1]octan-3-yl)-7-(thiazol-2-yl)-5-(trifluoromethoxy)benzo[d]oxazole] |  | < 100 nM

Row | Structure (SMILES) | IC50 [1] | IC50 [2]
18 | Clc1ccc(-c2nccs2)c2oc(N3CC4CCC(C3)N4)nc12 [Example 36, 2-(3,8-Diazabicyclo[3.2.1]octan-3-yl)-4-chloro-7-(thiazol-2-yl)benzo[d]oxazole] |  | < 100 nM
19 | OCC(F)(F)Oc1ccc(-c2cscn2)c2oc(N3CC4CCC(C3)N4)nc12 [Example 312, 2-((2-(3,8-Diazabicyclo[3.2.1]octan-3-yl)-7-(thiazol-4-yl)benzo[d]oxazol-4-yl)oxy)-2,2-difluoroethan-1-ol] | < 100 nM | 
20 | C=CCOc1cc(-c2nccs2)c2oc(N3CC4CCC(C3)N4)nc2c1 [Example 72, 5-(Allyloxy)-2-(3,8-diazabicyclo[3.2.1]octan-3-yl)-7-(thiazol-2-yl)benzo[d]oxazole] |  | < 100 nM
21 | c1csc(-c2ccc(C3CC3)c3nc(N4CC5CC(C4)N5)oc23)n1 [Example 344, 2-(3,6-Diazabicyclo[3.1.1]heptan-3-yl)-4-cyclopropyl-7-(thiazol-2-yl)benzo[d]oxazole] | < 100 nM | 
22 | CC(O)C(F)(F)OC(c1ccc(-c2nccs2)c2oc(N3CC4CC(C3)N4)nc12)C(F)(F)F (stereo not drawn) [Example 265, 1-(1-(2-(3,6-Diazabicyclo[3.1.1]heptan-3-yl)-7-(thiazol-2-yl)benzo[d]oxazol-4-yl)-2,2,2-trifluoroethoxy)-1,1-difluoropropan-2-ol] | < 100 nM | 
23 | C[S+]([O-])c1cc(-c2nccs2)c2oc(N3CC4CCC(C3)N4)nc2c1 (stereo not drawn) [Example 42, 2-(3,8-Diazabicyclo[3.2.1]octan-3-yl)-5-(methylsulfinyl)-7-(thiazol-2-yl)benzo[d]oxazole] |  | < 100 nM
24 | COC(C)c1cc(-c2nccs2)c2oc(N3CC4CCC(C3)N4)nc2c1C(F)(F)F (stereo not drawn) [Example 184, 2-(3,8-Diazabicyclo[3.2.1]octan-3-yl)-5-(1-methoxyethyl)-7-(thiazol-2-yl)-4-(trifluoromethyl)benzo[d]oxazole] | < 100 nM | 
25 | CC(C)(O)c1cc(-c2nccs2)c2oc(N3CC4CCC(C3)N4O)nc2c1OC(F)(F)F [Example 368, 3-(5-(2-Hydroxypropan-2-yl)-7-(thiazol-2-yl)-4-(trifluoromethoxy)benzo[d]oxazol-2-yl)-3,8-diazabicyclo[3.2.1]octan-8-ol] | 100 to 1000 nM | 
26 | CCOC(=O)c1cc(-c2nccs2)c2oc(N3CC4CC(C3)N4)nc2c1 [Example 87, Ethyl 2-(3,6-diazabicyclo[3.1.1]heptan-3-yl)-7-(thiazol-2-yl)benzo[d]oxazole-5-carboxylate] |  | < 100 nM
27 | FC(F)(F)COC(c1ccc(-c2nccs2)c2oc(N3CC4CCC(C3)N4)nc12)C(F)(F)F (stereo not drawn) [Example 221, 2-(3,8-Diazabicyclo[3.2.1]octan-3-yl)-7-(thiazol-2-yl)-4-(2,2,2-trifluoro-1-(2,2,2-trifluoroethoxy)ethyl)benzo[d]oxazole] | < 100 nM | 
28 | NS(=O)(=O)c1cc(-c2nccs2)c2oc(N3CC4CCC(C3)N4)nc2c1 [Example 57, 2-(3,8-Diazabicyclo[3.2.1]octan-3-yl)-7-(thiazol-2-yl)benzo[d]oxazole-5-sulfonamide] |  | < 100 nM
29 | FC(F)Oc1ccc(-c2nccs2)c2oc(N3CC4CC(C3)N4)nc12 [Example 278, 2-(3,6-Diazabicyclo[3.1.1]heptan-3-yl)-4-(difluoromethoxy)-7-(thiazol-2-yl)benzo[d]oxazole] | < 100 nM | 
30 | Cc1ccc(-c2nccs2)c2oc(N3CC4CC(C3)N4)nc12 [Example 26, 2-(3,6-Diazabicyclo[3.1.1]heptan-3-yl)-4-methyl-7-(thiazol-2-yl)benzo[d]oxazole] |  | < 100 nM
31 | NS(=O)(=O)c1cc(-c2nccs2)c2oc(N3CC4CC(C3)N4)nc2c1 [Example 58, 2-(3,6-Diazabicyclo[3.1.1]heptan-3-yl)-7-(thiazol-2-yl)benzo[d]oxazole-5-sulfonamide] |  | < 100 nM
32 | OCC(F)(F)OC(c1ccc(-c2nccs2)c2oc(N3CC4CC(C3)N4)nc12)C(F)(F)F (stereo not drawn) [Example 258, 2-(1-(2-(3,6-Diazabicyclo[3.1.1]heptan-3-yl)-7-(thiazol-2-yl)benzo[d]oxazol-4-yl)-2,2,2-trifluoroethoxy)-2,2-difluoroethan-1-ol] | < 100 nM | 
33 | c1csc(-c2cc(OCC3COC3)cc3nc(N4CC5CCC(C4)N5)oc23)n1 [Example 70, 2-(3,8-Diazabicyclo[3.2.1]octan-3-yl)-5-(oxetan-3-ylmethoxy)-7-(thiazol-2-yl)benzo[d]oxazole] |  | < 100 nM
